Measured values from ChEMBL document CHEMBL6103591, “Discovery of naphthoquinone-furo-piperidone derivatives as dual targeting agents of STAT3 and NQO1 for the treatment of breast cancer” (Eur J Med Chem, 2025).

Tests used:
MDA-MB-231 [1] = assay: Antiproliferative activity against human MDA-MB-231 cells assessed as reduction in cell viability incubated for 48 hrs by MTT assay; assay type: functional, cell-based; details: MDA-MB-231, 48 h
MDA-MB-468 [2] = assay: Antiproliferative activity against human MDA-MB-468 cells assessed as reduction in cell viability incubated for 48 hrs by MTT assay; assay type: functional, cell-based; details: MDA-MB-468, 48 h
[3] = molecular target: Signal transducer and activator of transcription 3 (Homo sapiens, UniProt P40763); assay: Inhibition of STAT3 (unknown origin) activation transfected in HEK293 preincubated for 30 mins followed by IL-6 addition and measured after 24 hrs by luciferase reporter gene assay; assay type: cell-based
[4] = Cytotoxicity against human MCF-10A cells; assay type: toxicity, cell-based
[5] = Selectivity ratio of IC50 for cytotoxicity against human MCF-10A cells to IC50 for antiproliferative activity against human MDA-MB-231 cells; assay type: toxicity, cell-based; details: MCF-10A cells versus MDA-MB-231 cells, read-out: Ratio IC50
MDA-MB-231 [6] = assay: Induction of apoptosis in human MDA-MB-231 cells assessed as early apoptotic cells at 1.5 uM measured after 24 hrs by Annexin V/propidium iodide (PI) double staining based flow cytometric analysis (reference value: 1.98 %); assay type: functional
MDA-MB-231 [7] = assay: Induction of apoptosis in human MDA-MB-231 cells assessed as late apoptotic cells at 1.5 uM measured after 24 hrs by Annexin V/propidium iodide (PI) double staining based flow cytometric analysis (reference value: 2.22 %); assay type: functional
MDA-MB-231 [8] = assay: Induction of apoptosis in human MDA-MB-231 cells assessed as early apoptotic cells at 3 uM measured after 24 hrs by Annexin V/propidium iodide (PI) double staining based flow cytometric analysis (reference value: 1.98 %); assay type: functional
MDA-MB-231 [9] = assay: Induction of apoptosis in human MDA-MB-231 cells assessed as late apoptotic cells at 3 uM measured after 24 hrs by Annexin V/propidium iodide (PI) double staining based flow cytometric analysis (reference value: 2.22 %); assay type: functional
MDA-MB-468 [10] = assay: Induction of apoptosis in human MDA-MB-468 cells assessed as early apoptotic cells at 1.5 uM measured after 24 hrs by Annexin V/propidium iodide (PI) double staining based flow cytometric analysis (reference value: 2.94 %); assay type: functional
MDA-MB-468 [11] = assay: Induction of apoptosis in human MDA-MB-468 cells assessed as late apoptotic cells at 1.5 uM measured after 24 hrs by Annexin V/propidium iodide (PI) double staining based flow cytometric analysis (reference value: 2.24 %); assay type: functional
MDA-MB-468 [12] = assay: Induction of apoptosis in human MDA-MB-468 cells assessed as early apoptotic cells at 3 uM measured after 24 hrs by Annexin V/propidium iodide (PI) double staining based flow cytometric analysis (reference value: 2.94 %); assay type: functional
MDA-MB-468 [13] = assay: Induction of apoptosis in human MDA-MB-468 cells assessed as late apoptotic cells at 3 uM measured after 24 hrs by Annexin V/propidium iodide (PI) double staining based flow cytometric analysis (reference value: 2.24 %); assay type: functional
MDA-MB-231 [14] = assay: Induction of apoptosis in human MDA-MB-231 cells assessed as early apoptotic cells at 3 uM measured after 24 hrs by Annexin V/propidium iodide (PI) double staining based flow cytometric analysis (reference value: 1.99 %); assay type: functional
MDA-MB-231 [15] = assay: Induction of apoptosis in human MDA-MB-231 cells assessed as late apoptotic cells at 3 uM measured after 24 hrs by Annexin V/propidium iodide (PI) double staining based flow cytometric analysis (reference value: 1.84 %); assay type: functional
MDA-MB-231 [16] = assay: Induction of apoptosis in human MDA-MB-231 cells assessed as early apoptotic cells at 3 uM measured after 24 hrs in presence of Z-VAD-FMK by Annexin V/propidium iodide (PI) double staining based flow cytometric analysis (reference value: 1.99 %); assay type: functional
MDA-MB-231 [17] = assay: Induction of apoptosis in human MDA-MB-231 cells assessed as late apoptotic cells at 3 uM measured after 24 hrs in presence of Z-VAD-FMK by Annexin V/propidium iodide (PI) double staining based flow cytometric analysis (reference value: 1.84 %); assay type: functional
MDA-MB-468 [18] = assay: Induction of apoptosis in human MDA-MB-468 cells assessed as early apoptotic cells at 3 uM measured after 24 hrs by Annexin V/propidium iodide (PI) double staining based flow cytometric analysis (reference value: 4.97 %); assay type: functional
MDA-MB-468 [19] = assay: Induction of apoptosis in human MDA-MB-468 cells assessed as late apoptotic cells at 3 uM measured after 24 hrs by Annexin V/propidium iodide (PI) double staining based flow cytometric analysis (reference value: 2.12 %); assay type: functional
MDA-MB-468 [20] = assay: Induction of apoptosis in human MDA-MB-468 cells assessed as early apoptotic cells at 3 uM measured after 24 hrs in presence of Z-VAD-FMK by Annexin V/propidium iodide (PI) double staining based flow cytometric analysis (reference value: 4.97 %); assay type: functional
MDA-MB-468 [21] = assay: Induction of apoptosis in human MDA-MB-468 cells assessed as late apoptotic cells at 3 uM measured after 24 hrs in presence of Z-VAD-FMK by Annexin V/propidium iodide (PI) double staining based flow cytometric analysis (reference value: 2.12 %); assay type: functional
MCF7 = assay: Antiproliferative activity against human MCF7 cells incubated for 48 hrs by MTT assay; assay type: functional, cell-based; details: MCF7, 48 h

Sequence of Signal transducer and activator of transcription 3 (P40763 whole entry): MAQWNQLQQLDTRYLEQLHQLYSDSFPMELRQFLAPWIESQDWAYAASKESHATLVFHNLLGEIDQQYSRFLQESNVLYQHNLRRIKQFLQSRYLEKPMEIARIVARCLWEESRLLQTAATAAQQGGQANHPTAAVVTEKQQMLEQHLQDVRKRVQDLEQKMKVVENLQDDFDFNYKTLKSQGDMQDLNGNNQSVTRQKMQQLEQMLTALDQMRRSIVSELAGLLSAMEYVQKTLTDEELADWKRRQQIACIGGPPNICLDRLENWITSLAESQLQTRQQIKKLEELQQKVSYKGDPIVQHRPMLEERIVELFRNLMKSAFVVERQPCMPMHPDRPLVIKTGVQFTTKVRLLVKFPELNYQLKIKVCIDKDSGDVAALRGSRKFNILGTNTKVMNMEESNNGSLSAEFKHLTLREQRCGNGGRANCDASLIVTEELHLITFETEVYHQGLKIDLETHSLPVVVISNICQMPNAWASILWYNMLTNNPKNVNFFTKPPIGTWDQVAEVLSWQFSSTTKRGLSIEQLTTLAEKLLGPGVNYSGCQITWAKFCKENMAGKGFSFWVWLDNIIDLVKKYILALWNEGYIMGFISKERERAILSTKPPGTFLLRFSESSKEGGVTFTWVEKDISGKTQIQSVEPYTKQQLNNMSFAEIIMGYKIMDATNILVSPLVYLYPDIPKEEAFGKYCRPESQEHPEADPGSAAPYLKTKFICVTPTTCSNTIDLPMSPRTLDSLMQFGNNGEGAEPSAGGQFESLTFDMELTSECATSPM

IC50 (MDA-MB-231 [1]): 0.52 µM
IC50 (MDA-MB-468 [2]): 1.48 µM
IC50 [3]: 0.4 µM
IC50 (MCF7): 1.05 µM
SMILES: O=C1C(=O)c2c(oc3c2CCN(CCN2CCCCC2)C3=O)-c2ccccc21
IC50 [4]: 3.33 µM
selectivity ratio [5]: ~6
Activity (MDA-MB-231 [6]): 2.31%
Activity (MDA-MB-231 [7]): 5.26%
Activity (MDA-MB-231 [8]): 2.94%
Activity (MDA-MB-231 [9]): 25.08%
Activity (MDA-MB-468 [10]): 7.36%
Activity (MDA-MB-468 [11]): 4.07%
Activity (MDA-MB-468 [12]): 14.73%
Activity (MDA-MB-468 [13]): 37.57%
Activity (MDA-MB-231 [14]): 8.01%
Activity (MDA-MB-231 [15]): 27.43%
Activity (MDA-MB-231 [16]): 4.67%
Activity (MDA-MB-231 [17]): 13.99%
Activity (MDA-MB-468 [18]): 17.75%
Activity (MDA-MB-468 [19]): 52.62%
Activity (MDA-MB-468 [20]): 9.18%
Activity (MDA-MB-468 [21]): 8.47%
